Experiments:
[1] = test system: mast cell deficient mice (WBB6F1-W/W^V) and normal control mice (WBB6F1-+/+); experiment: Scratch bouts of mast cell deficient and normal control mice after 10% SDS application (Sample Experiment 1-2); assay type: in vivo, mouse; conditions: both mast cell deficient and normal control mice, 10% SDS aqueous solution 50 μL single application; no significant difference between both mice
Protocol: The present Sample Experiment was conducted using mast cell deficient mice and normal control mice, and SDS was used as a stimulating substance to analyze the scratch bouts of mice. Further, the amount of histamine in the skin of each mouse was assessed after SDS had been applied. Male mast cell deficient mice at ages of 7 to 8 weeks (WBB6F1-W/W^V mouse), purchased from Japan SLC, and normal control mice that are wild mice at ages of 7 to 8 weeks (WBB6F1-+/+mouse) were used. The mice were given solid feed under free water supply and subjected to preliminary rearing for 7 days or longer under a constant temperature/constant humidity environment with a temperature of 22±2° C., and a humidity of 55±10% before they were used in the test. The mice for use were used in the test at least 3 days after shearing/depilating the rostral back of each mouse. A 10% aqueous solution composed of SDS dissolved in distilled water was applied a single time at 50 μL as a stimulating substance against the skin to the sheared/depilated rostral back of the mice mentioned above. If the surfactant solution had turned hard before application, it was heated and dissolved in a hot water bath of 37° C. before use. Distilled water was applied to the solvent control group (Vehicle). […]

[2] = test system: histamine in mouse epidermis and dermis; experiment: Amount of histamine in skin of mast cell deficient and normal control mice after SDS (Sample Experiment 1-2); assay type: in vivo; conditions: Day 4, both mast cell deficient and normal control mice, SDS applied group vs solvent control
Protocol: Meanwhile, skin was collected from each of the mast cell deficient mice and normal control mice in the 10% SDS aqueous solution application group mentioned above at Day 4 while the mice were under anesthesia after perfusion with a phosphate buffer solution (PBS) using the cardiac blood circulation system (punched out with a biopsy punch in a circular shape of a diameter of 18 mm). The amounts of histamine in the collected skins were measured. In other words, each collected skin was immersed in PBS of 60° C. for 30 secs., then separated into the epidermis and the dermis. Subsequently, the amounts of histamine in the epidermis and the dermis were measured using the measurement kit (histamine enzyme immunoassay kit (Immunotech, Marseilles, France)). To measure the amount of histamine, tissues of both the epidermis and the dermis were pulverized to create tissue suspensions, which were subjected to centrifugation, then supernatants were collected to measure the amounts of histamine in the supernatants.

[3] = test system: histamine in mouse epidermis and dermis; experiment: Amount of histamine in ICR mouse skin after SDS (Sample Experiment 1-3); assay type: in vivo; conditions: ICR mice, Day 4, 10% SDS application group vs solvent control
Protocol: The present Sample Experiment was conducted using ICR mice, and SDS was used as a stimulating substance. After SDS was applied, the amount of histamine in the skin of each mouse was assessed, and so was the HDC expression amount in the skin of each mouse. The same ICR mice as used in Sample Experiment 1-1 was used. Treatments of the ICR mice, such as preliminary rearing, and the shearing/depilating of the rotal back, were performed similarly to Sample Experiment 1-1. A 10% aqueous solution obtained by dissolving SDS in distilled water was applied to the mouse rostal back as a stimulating substance against the skin similarly to Sample Experiment 1-1. Distilled water was applied to the solvent control group (Vehicle). Skin was collected by operations similar to that mentioned in “Amount of Histamine in Mouse Skin” in Sample Experiment 1-2 from each ICR mouse of the 10% SDS aqueous solution application group and the solvent control group mentioned above after 4 days had passed from application (Day 4). The collected skins were separated into the epidermis and the dermis, and the amounts of histamine in those skins were measured.

[4] = test system: L-histidine decarboxylase (HDC); experiment: HDC expression amount in mouse epidermis and dermis by Western blot (Sample Experiment 1-3); assay type: in vivo; conditions: ICR mice, Day 4, 10% SDS vs solvent control
From the text: Concerning the epidermis and dermis obtained by the method in the “Amount of Histamine in Mouse Skin” section above, the HDC in the epidermis and the HDC in the dermis were quantitatively determined by the Western blot analysis. The protein in the epidermis and the dermis was extracted using the Mammalian cell lysis kit (Sigma, Tokyo, Japan).
The protein extract was subjected to centrifugation and the obtained supernatant was used as a protein solution. The amount of protein in the protein solution was quantitatively determined using a protein quantification kit, 2-D Quant Kit of GE Health Care Bioscience Co. Then, a sample buffer containing a reducing agent, 2-mercaptoethanol, was added to a certain amount of protein, and the mixture was reacted at 95° C. to cut the disulfide bond in the protein structure. This enables electrophoresis that reflects the molecular amount.
The protein solution processed in the above manner was subjected to the Western blot analysis. In other words, electrophoresis was performed according to the following electrophoresis condition. As a result, protein was separated according to the molecular amount. Then, the separated protein was transcribed to the membrane according to the following transcription condition.
Applied gel: Nupage 4%-12% Bis-tris gels (Invitrogen Corp., Carlsbad, Calif.) Electrophoresis buffer: 3-morpholinopropanesulfonic acid (MOPS) buffer Current/electrophoresis time: 200V, 100 mins.
Applied membrane: Polyvinylidene Fluoride (PVDF) membrane Electrophoresis buffer: NuPAGE transcription buffer (Invitrogen Corp., Carlsbad, Calif.) pos Current/electrophoresis time: 30V, 60 mins.
The membrane was cut at about 50 kDa after transcription. Then, blocking was performed with a 1% skim milk aqueous solution. […] After processing the secondary antibody and then washing each membrane with PBS-T (a solution comprising PBS and 0.1% Tween20), a band was detected with a fluorescent scanner. Then, the detected band was determined by quantification using an image analysis software Scion Image (Scion. Corp., Frederick, Md., USA). The Scion Image is a software that selects the band of the protein to be quantified, reads the band area and the density of the color tone, and detects the numerical value corresponding to the protein expression amount based on those information.
HDC and β-actin (component of the cytoskeleton) are detected from the above processing. […]

## CCCCCCCCCCCCOS(=O)(=O)[O-].[Na+] [SDS, sodium dodecyl sulfate]
[1]
  scratch bouts of mice (number in 60 mins.) after stimulating substance: increased significantly with time
[2]
  amount of histamine in mouse dermis: barely increased
  amount of histamine in mouse epidermis: significantly high
[3]
  amount of histamine in mouse dermis: does not differ significantly
  amount of histamine in mouse epidermis: significantly higher
[4]
  53 kDa-HDC (active) expression amount, dermis: did not change
  53 kDa-HDC (active) expression amount, epidermis: increased
  74 kDa-HDC (inactive) expression amount, dermis: increased significantly
  74 kDa-HDC (inactive) expression amount, epidermis: increased
